Reference: patent US8809234B1, “Drift reduction compositions for agricultural use” (AgQuam LLC, priority 2011, dated 2014)

Assays:
Type in all cases: in vivo
Settings in all cases: Glyphosate 0.375 lb/acre; AMS 17 lb/100 gal, NIS, AQ 284 or AQ 268 […] v/v, INTERLOCK 4 fl oz/acre
Corn = experiment: Greenhouse study for weed control, corn
Experimental: (§1) A greenhouse study was conducted to test the efficacy of the AQ 284 combination water conditioning adjuvant and drift reduction composition compared to the commercial standard (INTERLOCK). Greenhouse research was conducted with individual plants growing in 3×3×3 inch pots. Greenhouse treatments were applied with a track sprayer using an 8002 E single nozzle applying 20 gpa.

Corn, Sunflower, Wheat = experiment: Greenhouse study for weed control, average of species
Experimental: as §1

Sunflower = experiment: Greenhouse study for weed control, sunflower
Experimental: as §1

Wheat = experiment: Greenhouse study for weed control, wheat
Experimental: as §1

O=C(O)CNCP(=O)(O)O [Glyphosate, N-(phosphonomethyl)glycine]
Corn % Control 18 Days After Application (Corn): 10.0% | Average % Control 18 Days After Application (Corn, Sunflower, Wheat): 13.3% | Sunflower % Control 18 Days After Application (Sunflower): 15.0% | Wheat % Control 18 Days After Application (Wheat): 15.0%
